Our source for the IC50 values is US20100168031A1, “Lat peptides and their use in assays for identifying immunosuppressants” (priority 2000, published 2010).

This experiment concerns the target T1, ZAP-70 (Homo sapiens, UniProt P43403).
T1 construct: A nucleic acid encoding full-length human ZAP-70 (GenBank #L05148); hexa-histidine (N); made in house; host or cells: Sf9 insect cells (baculovirus)
T1 sequence (P43403 1-619): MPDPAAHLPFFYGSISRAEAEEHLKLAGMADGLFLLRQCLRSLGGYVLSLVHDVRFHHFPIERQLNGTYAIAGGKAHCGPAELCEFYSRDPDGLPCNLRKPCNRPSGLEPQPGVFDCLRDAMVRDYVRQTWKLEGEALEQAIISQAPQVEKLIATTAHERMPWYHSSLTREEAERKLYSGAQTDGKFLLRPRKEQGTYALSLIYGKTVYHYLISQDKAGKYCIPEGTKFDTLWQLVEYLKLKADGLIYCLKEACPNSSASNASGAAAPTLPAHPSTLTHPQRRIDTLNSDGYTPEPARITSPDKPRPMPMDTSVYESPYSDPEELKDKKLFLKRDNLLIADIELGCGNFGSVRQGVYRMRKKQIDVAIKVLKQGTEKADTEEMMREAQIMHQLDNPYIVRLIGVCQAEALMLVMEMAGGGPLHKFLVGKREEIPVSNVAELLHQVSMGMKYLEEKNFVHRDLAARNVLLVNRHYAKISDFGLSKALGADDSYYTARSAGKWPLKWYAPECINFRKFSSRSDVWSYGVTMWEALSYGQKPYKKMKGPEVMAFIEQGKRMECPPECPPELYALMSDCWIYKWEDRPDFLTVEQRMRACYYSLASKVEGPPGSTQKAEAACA
As to the kind of experiment: Phosphorylation of compounds of formula I by ZAP-70 measured in a competitive assay (Example C5). It is filed as biochemical. The following applies: non-biotinylated peptide competing with biotinylated SEQ ID NO:12; Lck-activated ZAP-70, PP2 added, 4 hours at RT; read-out: IC50, inhibition of the phosphorylation of SEQ ID NO:12 by ZAP-70. On the procedure:
80 nM ZAP-70 are incubated with 80 nM Lck and 4 μM ATP in ZAP-70 kinase buffer for 1 hour at RT in a siliconized polypropylene tube. Then, the selective Lck inhibitor PP2 (see Example C2) is added (final concentration 1.2 μM) and incubated for further 10 min.
Ten μl of this solution is mixed with 10 μl biotinylated compound of e.g. SEQ ID NO:12 (1 μM) and 20 μl of the non-biotinylated peptides of compounds of formula I, e.g. by SEQ ID NO:21, SEQ ID NO:15, SEQ ID NO:16 or SEQ ID NO:17 (serial dilution 0.28 to 200 μM) and incubated for 4 hours at RT. Termination of the kinase reaction, detection phase and determination of fluorescence is performed as described in Example C1.

Numbered stars: 1 amine (or outer) side, 2 acyl side, 3 side chain; on linkers, the order of the positions; unused ones are H or OH. Peptide text beside a SMILES is read from it. Suc = O=C(CCC(=O)[*:2])[*:1]

As a reminder, the IC50 is the concentration at which inhibition is half-maximal. In the case of `CC(C)C[C@H](NC(=O)[C@H](CC(N)=O)NC(=O)[C@H](CCC(=O)O)NC(=O)[C@H](Cc1ccc(O)cc1)NC(=O)[C@H](CC(=O)O)NC(=O)CCC(=O)O)C(N)=O` [SEQ ID NO:22, HOOC-CH2-CH2-CO-Asp-Tyr-Glu-Asn-Leu-NH2] (Suc-DYENL-NH2), the IC50 lay within 0.6 to 21 µM. Next, `CC(C)C[C@H](NC(=O)[C@H](CC(N)=O)NC(=O)[C@H](CCC(=O)O)NC(=O)[C@H](Cc1ccc(O)cc1)NC(=O)[C@H](CC(=O)O)NCC(=O)O)C(N)=O` [SEQ ID NO:23, HOOC-CH2-Asp-Tyr-Glu-Asn-Leu-NH2]: 0.6 to 21 µM. In the case of `CC(C)C[C@H](NC(=O)[C@H](Cc1ccccc1)NC(=O)[C@H](CCC(=O)O)NC(=O)[C@H](Cc1ccc(O)cc1)NC(=O)[C@H](CC(=O)O)NC(=O)CCC(=O)O)C(N)=O` [SEQ ID NO:24, HOOC-CH2-CH2-CO-Asp-Tyr-Glu-Phe-Leu-NH2] (Suc-DYEFL-NH2), the IC50 lay within 0.6 to 21 µM. Turning to “Ac-DYENL-NH2 [SEQ ID NO:17, acetyl-Asp-Tyr-Glu-Asn-Leu-NH2]”, the half-maximal inhibitory concentration (IC50) lay in the range of 0.6 to 21 µM. On to “Ac-DYENLQELN-OH [SEQ ID NO:15, acetyl-Asp-Tyr-Glu-Asn-Leu-Gln-Glu-Leu-Asn-OH]”, for which the IC50 was 0.6 to 21 µM. Next, “Ac-EEGAPDYENL-NH2 [SEQ ID NO:16, acetyl-Glu-Glu-Gly-Ala-Pro-Asp-Tyr-Glu-Asn-Leu-NH2]”: 0.6 to 21 µM; “Ac-EEGAPDYENLQELN-OH [SEQ ID NO:21, acetyl-Glu-Glu-Gly-Ala-Pro-Asp-Tyr-Glu-Asn-Leu-Gln-Glu-Leu-Asn-OH]”: 0.6 to 21 µM.
